Data: patent US20250205339A1, “FORMULATION HAVING IMPROVED ABSORBABILITY OF LOW-SOLUBLE AND/OR LOW-MEMBRANE-PERMEABLE DRUG” (MEDRx Co., Ltd., priority 2022, published 2025)
≈ marks a conversion by molar mass, not a printed value. Where two headings read alike, the source gives them in different places. Values belong to the compound of their own block, whether it stands above or below them.

Columns and labels:
[1] = cited from earlier work
Caco-2 cells [2] = test system: Caco-2 cells
Procedure: In order to study an ionic liquid for enhancing the intestinal absorption effect of a drug with low solubility and/or low permeability, various types of ionic liquids were prepared and the permeability of a drug with low solubility and/or low permeability in compositions comprising the prepared ionic liquid and the drug was evaluated. Specifically, the permeability of a drug was evaluated by the Caco-2 cell membrane permeation assay according to the following procedures for compositions comprising VZ185, which is PROTAC, used as a model drug with low solubility and/or low permeability and each ionic liquid.
Sodium hydroxide (0.4 g) was dissolved in water (100 mL) to prepare 0.1N NaOH solution. MES (2-morpholinoethanesulfonic acid, 1.493 g) and D-glucose (2.453 g) were dissolved in HBSS (+) (free of phenol red) (600 mL), the solution was adjusted to pH 6.5 with 0.1N NaOH solution, and then HBSS (+) (free of phenol red) was further added and adjusted to 700 mL. The solution was sterilized by filtration through 0.22 μm membrane filter to prepare Transport Buffer (A).
HEPES (1.192 g), D-glucose (1.752 g) and BSA (1.25 g) were then dissolved in HBSS (+) (free of phenol red) (400 mL), the solution was adjusted to pH 7.4 with 0.1N NaOH solution, and then HBSS (+) (free of phenol red) was further added and adjusted to 500 mL. The solution was sterilized by filtration through 0.22 μm membrane filter to prepare Transport Buffer (B). • (2) Preparation of Sample Solution
VZ185 (1.5 mg) was mixed with 1% TWEEN 80 (1.5 mL) to 1 mg/ml of VZ185 solution. Each organic acid (0.05 mmol) which is an anion ingredient and each cationic lipid (0.05 mmol) which is a cation ingredient were mixed with Transport Buffer (A) (4.98 mL) to prepare an ionic liquid composition comprising 10 mM each of the ingredients.
1 mg/mL of VZ185 solution (25 μL) and the ionic liquid composition or control composition (475 μL) were mixed to prepare 50 μg/mL of a drug-ionic liquid composition or a drug-control composition. […]

[3] = Parallel Artificial Membrane Permeation Assay (PAMPA); type: in vitro ADME; settings: Examples 3 and 4, FIG. 1-3; isostearic acid-DODMA, isostearic acid-DODAP, oleic acid-DODMA (5 mM each ingredient); control PBS
Procedure: In this assay, VZ185 and BI-3663 were used as a drug with low solubility and/or low permeability, and isostearic acid-DODMA, isostearic acid-DODAP and oleic acid-DODMA were used as an ionic liquid. As the control, PBS was used.
Specifically, the permeability of the drugs was evaluated by Parallel Artificial Membrane Permeability Assay-Skin Kit (BioAssay Systems) according to the following procedures. • (1) Preparation of Phosphate Buffer Solution (PBS)
One tablet of Phosphate Buffered Saline Tablet (Sigma) was dissolved in 200 mL of water to prepare PBS. • (2) Preparation of Sample Solution
Also, PBS (475 μL) was mixed with 1 mg/mL of VZ185 solution (25 μL) to prepare 50 μg/mL of a drug-control solution as the control.
4% Lecithin/dodecane solution (5 μL) was then added into each donor well and allowed to stand. PBS (300 μL) was added into each acceptor well and 50 μg/mL of the drug-ionic liquid composition (200 μL) was added into each donor well, and the mixture was incubated in a thermostatic bath at 37° C. […] The sample solution of BI-3663 was prepared according to the same procedure.

Caco-2 cells [4] = test: Cell membrane integrity by Trans-Epithelial Electrical Resistance (TEER); settings: Example 1; Caco-2 monolayer exposed to VZ185 50 μg/mL with 10 mM ionic liquid or control composition (5 mM where labelled); standard value >1000Ω
Caco-2 cells [5] = test system: Caco-2 cells; remark: listed apart in the source
Caco-2 cells [6] = test system: Caco-2 cells; remark: listed apart in the source
Caco-2 cells [7] = test: Cell membrane integrity by permeability of Lucifer Yellow; settings: Example 1; after VZ185 permeation test with 10 mM ionic liquid or control composition (5 mM where labelled); 60 min; standard value <1%

absorbability of VZ185 by use of the ionic liquids (Caco-2 cells [2]): remarkably improved | absorbability of the drug by the PAMPA with ionic liquids [3]: remarkably improved
Compound: COc1cc(-c2cn(C)c(=O)c3cnccc23)cc(OC)c1CN1CCN(CCCCCOc2cc(-c3scnc3C)ccc2CNC(=O)[C@@H]2C[C@@H](O)CN2C(=O)[C@@H](NC(=O)C2(F)CC2)C(C)(C)C)CC1 [VZ185]
Solubility [1]: 85 µg/mL (≈ 85.4 µM)

absorbability of bifonazole by use of the ionic liquid (Caco-2 cells [2]): remarkably improved | absorbability of the drug by the PAMPA with ionic liquids [3]: remarkably improved
Compound: c1ccc(-c2ccc(C(c3ccccc3)n3ccnc3)cc2)cc1 (stereo not shown) [bifonazole]

Compound: CCCCCCCC/C=C\CCCCCCCC(=O)[O-].[Na+] [Sodium oleate, sodium oleate]
TEER (Caco-2 cells [4]): 100 Ω

Compound: Oleic acid-Trometamol
TEER (Caco-2 cells [5]): 4750 Ω | Lucifer Yellow (%) (Caco-2 cells [6]): 0.1%

Lucifer Yellow (%) (Caco-2 cells [7]): 4.3% | TEER (Caco-2 cells [4]): 210 Ω
Compound: O=C([O-])CCCCCCCNC(=O)c1ccccc1O.[Na+] [SNAC, salcaprozate sodium]

absorbability of BI-3663 by use of the ionic liquids (Caco-2 cells [2]): remarkably improved | absorbability of the drug by the PAMPA with ionic liquids [3]: remarkably improved
Compound: COc1cc(C(=O)NCCOCCOCCOCCC(=O)Nc2cccc3c2C(=O)N(C2CCC(=O)NC2=O)C3=O)ccc1Nc1ncc(C(F)(F)F)c(Oc2cccc3c2C(=O)CC3)n1 (stereo not shown) [BI-3663]
Solubility [1]: <1 µg/mL

Compound: Oleic acid-Arginine
TEER (Caco-2 cells [5]): 3560 Ω | Lucifer Yellow (%) (Caco-2 cells [6]): 0.1%

TEER (Caco-2 cells [5]; human, 10 mM): 550 Ω
Compound: CC(O)C(=O)O (stereo not shown) [Lactic acid, lactic acid]
